US20030195161A1, “Composition comprising camptothecin or a camptothecin derivative and a topoisomerase II inhibitor for the treatment of cancer” (priority 2000, published 2003)
Like-named read-outs stand apart in the source and are kept apart here. Marks after values point to notes of the source that are not given here.

What was measured:
[1] = tested on: P388; format: in vivo, mice; conditions: highest non-toxic dose
Protocol: (§1) Cross-resistance between various agents was measured in murine leukemia cell lines. P388/CPT is a camptothecin-resistant leukemia that was established in vitro (Biochem. Pharmacol., 45: 339 (1993)) and maintained in vivo by i.p. passages in DBA2 female mice. The chemosensitivity of i.p. P388/CPT was evaluated with i.v. P388 sensitive reference drugs with different mechanisms of action. Antitumor efficacy was determined at the highest non-toxic dose as percent increase in life span (ILS), where:
(§2) ILS=100×[(median day of death (MDD) of treated mice)−(MDD control mice)][…]
(§3) A minimal level of activity equals an ILS of greater than 26%. P388/CPT was found resistant to camptothecin s.c. and CPT-11, but sensitive to both doxorubicin and etoposide. […] Table II tabulates the results from this study.

[2] = tested on: P388/CPT; test: Percent increase in life span, camptothecin-resistant i.p. P388/CPT leukemia (Example 2); format: in vivo, mice; conditions: for Comment (chemosensitivity of P388/CPT): minimal activity = ILS greater than 26%; for % ILS: i.p. P388/CPT, highest non-toxic dose
Protocol: as §1, §2, §3

[3] = tested on: C26; conditions: C26 (BALB/c); for LCK: at optimal total dose
Protocol: (§4) This efficacy may be quantified, for example by the log10 cell kill, which is determined by the following formula: […]
(§5) in which T−C represents the time taken for the cells to grow, which is the mean time in days for the tumors of the treated group (T) to reach a predetermined value (1 g for example) and the tumors of the control group (C) to reach the same value, and Td represents the time in days needed for the volume of the tumors in the control group to double. […] A product is considered to be active if the log10 cell kill is greater than or equal to 0.7. A product is considered to be very active if the log10 cell kill is greater than 2.8.

[4] = tested on: C51; conditions: C51 (BALB/c), days 5, 7, 9, 13, 15, twice daily; for LCK: at optimal total dose
Protocol: as §4, §5

[5] = tested on: GOS; conditions: GOS (B6D2F1); for LCK: at optimal total dose
Protocol: as §4, §5

[6] = tested on: MA16/C; conditions: MA16/C (C3H/HeN); for Optimal Total Dose: days 5-9; for LCK: days 5-9, at optimal total dose
Protocol: as §4, §5

[7] = tested on: P03; conditions: P03 (B6D2F1), twice daily; for LCK: at optimal total dose
Protocol: as §4, §5

[8] = Tolerance of oral and i.v. irinotecan in tumor bearing mice (Example 1); format: in vivo; conditions: oral and intravenous
[9] = tested on: P03, sc; test: Dose response combination study, P03 sc (Example 5); format: in vivo, murine
Protocol: Three arms were evaluated for tolerance and efficacy.

[10] = tested on: Pancreatic Ductal Adenocarcinoma P03
Protocol: In the first arm, three doses of CPT were given orally on days six through nine, twice a day. In the second arm, three doses of doxorubicin were given intravenously on days six and nine. In the combination third arm, five dosage levels of CPT-11 were administered orally on days six through nine, twice a day, with administration of five dosage levels of doxorubicin intravenously on days six and nine. This third arm illustrated an example of semi-simultaneous administration. In all three arms, the two daily administrations of CPT-11 were given four hours apart.

[11] = tested on: MA16/C, sc; test: Dose response combination study, MA16/C sc (Example 5)
Protocol: (§6) The effectiveness of irinotecan combination chemotherapy methods was tested in a dose response study in a murine tumor model. Three arms were evaluated for tolerance and efficacy. Tolerance was measured by mortality, body weight loss at nadir, host recovery time, and combination toxicity index. Efficacy end points for solid tumor models were tumor growth delay (T/C), log10 cell kill (LCK, defined above), tumor regressions (i.e., complete remission (CR),or partial remission (PR)).
(§7) The LD10 for the single agent was obtained by plotting the toxicity of that agent and the dosage in mg/kg as a log probit graph. Subsequently, the CTI LD10 was obtained by plotting as a log probit graph the observed lethality and the corresponding CTI calculated as the sum of the fraction of the LD10 of each single agent.

[12] = tested on: MA16/C, sc; conditions: mouse, in vivo
Protocol: as §6, §7

[13] = CPT-11 p.o. 38.8 mg/kg/adm, days 6-9 (twice/day)
[14] = CPT-11 p.o. 62.5 mg/kg/adm, days 6-9 (twice/day)
[15] = CPT-11 p.o. 100.8 mg/kg/adm, days 6-9 (twice/day)
[16] = Doxorubicin i.v. 3.8 mg/kg/adm, days 6, 9
[17] = Doxorubicin i.v. 6.2 mg/kg/adm, days 6, 9
[18] = Doxorubicin i.v. 10.0 mg/kg/adm, days 6, 9

## CC[C@@]1(O)C(=O)OCc2c1cc1n(c2=O)Cc2cc3ccccc3nc2-1 [CPT, camptothecin]
[1]; P388, agent s.c.
  % ILS: 82%
[2]; agent s.c.
  Comment (chemosensitivity of P388/CPT): resistant
  % ILS: 0%

## CCc1c2c(nc3ccc(OC(=O)N4CCC(N5CCCCC5)CC4)cc13)-c1cc3c(c(=O)n1C2)COC(=O)[C@]3(O)CC [CPT-11, irinotecan]
[3]; i.v., twice daily
  Optimal Total Dose: 228 mg/kg
  LCK: 0.7
[3]; oral, days 3-7 twice daily
  Optimal Total Dose: 558 mg/kg
  LCK: 0.9
[4]; i.v.
  Optimal Total Dose: 615 mg/kg
  LCK: 3.0
[4]; oral
  Optimal Total Dose: 845 mg/kg
  LCK: 2.5
[5]; i.v., days 3, 5, 7 twice daily
  Optimal Total Dose: 346.2 mg/kg
  LCK: 2.2
[5]; oral, days 3-7, twice daily
  Optimal Total Dose: 900 mg/kg
  LCK: 2.1
[6]; i.v.
  Optimal Total Dose: 130.5 mg/kg
  LCK: 2.6
[6]; oral
  Optimal Total Dose: 230.5 mg/kg
  LCK: 2.7
[7]; i.v.
  Optimal Total Dose: 346.2 mg/kg
  LCK: 3.2†
[7]; i.v., 346.2 mg/kg total
  tumor free survivor on day 120: †1/5 tumor free survivor on day 120.
[7]; oral
  Optimal Total Dose: 900 mg/kg
  LCK: 3.4†
[7]; oral, 900 mg/kg total
  tumor free survivor on day 120: †1/5 tumor free survivor on day 120.
[8]; days post last administration
  nadir: 7 days
[8]; days post nadir (i.e., 12 days post first administration)
  recovery: 5 days
[8]; similar tolerance
  body weight loss: 8.5%
[1]; P388, agent i.v.
  % ILS: 91%
[2]; agent i.v.
  Comment (chemosensitivity of P388/CPT): resistant
  % ILS: 0%
[9]; CPT-11 p.o. single agent at HNTD 806 mg/kg, days 6-9 twice daily
  LCK: 1.3
[9]; CPT-11 p.o. single agent, days 6-9 twice daily
  HNTD Dose: 806 mg/kg
[10]; [13]
  Comments: Inactive
  Log10 cell kill: 0.5
  T-C: 4.0 days
  Time for median tumor to reach 1000 mg: 20.4 days
[10]; [14]
  Comments: Active
  Log10 cell kill: 1.2
  T-C: 9.3 days
  Time for median tumor to reach 1000 mg: 25.7 days
[10]; [15]
  Comments: HDT active
  Log10 cell kill: 1.3
  T-C: 9.8 days
  Time for median tumor to reach 1000 mg: 26.2 days
[11]; CPT-11 p.o. single agent at HNTD 198.5 mg/kg, MA16/C sc, days 3-7
  LCK: 2.0
[11]; CPT-11 p.o. single agent, MA16/C sc, days 3-7
  HNTD Dose: 198.5 mg/kg

## COc1cccc2c1C(=O)c1c(O)c3c(c(O)c1C2=O)C[C@@](O)(C(=O)CO)C[C@@H]3O[C@H]1C[C@H](N)[C@H](O)[C@H](C)O1 [doxorubicin]
[1]; P388, agent i.v.
  % ILS: 122%
[2]; agent i.v.
  Comment (chemosensitivity of P388/CPT): sensitive
  % ILS: 180%
[9]; doxorubicin i.v. single agent at HNTD 20.0 mg/kg, days 6, 9
  tumor free survivors: 4/5
[9]; doxorubicin i.v. single agent, days 6, 9
  HNTD Dose: 20.0 mg/kg
[10]; [16]
  Comments: Active
  Log10 cell kill: 1.0
  T-C: 7.5 days
  Time for median tumor to reach 1000 mg: 23.9 days
[10]; [17]
  Comments: Active
  Log10 cell kill: 1.2
  T-C: 9.5 days
  Time for median tumor to reach 1000 mg: 25.9 days
[10]; [18]
  Comments: HDT highly active
  tumor free survivors: *There are no values presented because 4 out of 5 animals tested were tumor free survivors.

## COc1cc([C@@H]2c3cc4c(cc3[C@@H](O[C@@H]3O[C@@H]5CO[C@@H](C)O[C@H]5[C@H](O)[C@H]3O)[C@H]3COC(=O)[C@H]23)OCO4)cc(OC)c1O [etoposide]
[1]; P388, agent i.v.
  % ILS: 127%
[2]; agent i.v.
  Comment (chemosensitivity of P388/CPT): sensitive
  % ILS: 121%
[12]
  HNTD Dose: 90.0 mg/kg
[11]; mouse, in vivo
  LCK: 2.2
